Results from PubChem BioAssay (NCI).
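Briefly, cells in 96-well plates were exposed to five compound concentrations for 48 h, and endpoints were estimated by linear interpolation. At the TGI there is no net growth.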

Columns and labels:
Assay in all cases: NCI anticancer screen, dose series, 48 h
M14 melanoma = test system: M14 melanoma
HOP-92 NSCLC = test system: HOP-92 NSCLC
A498 renal = test system: A498 renal
RXF 393 renal = test system: RXF 393 renal
SK-MEL-2 melanoma = test system: SK-MEL-2 melanoma
NCI-H226 lung = test system: NCI-H226 lung
HL-60(TB) leukemia = test system: HL-60(TB) leukemia
NCI-H460 lung = test system: NCI-H460 lung
MDA-N = test system: MDA-N
MCF7 breast = test system: MCF7 breast

Question: What does the source list for `CC1=C(O)C(=O)C2C(=O)C1C1Cc3ccccc3C21` (stereo not drawn)?
Answer: TGI (M14 melanoma): > 100 µM; TGI (HOP-92 NSCLC): > 100 µM; TGI (A498 renal): > 100 µM; TGI (RXF 393 renal): > 100 µM; TGI (SK-MEL-2 melanoma): > 100 µM; TGI (NCI-H226 lung): > 100 µM; TGI (HL-60(TB) leukemia): > 100 µM

Question: Which TGI (M14 melanoma) does the source give for `O=C(O)CCSCc1ccccc1` here?
Answer: > 100 µM

Question: What about the TGI (A498 renal) of the same compound?
Answer: > 100 µM

Question: What about the TGI (RXF 393 renal) of the same compound?
Answer: > 100 µM

Question: What about the TGI (NCI-H460 lung) of the same compound?
Answer: > 100 µM

Question: And the TGI (MDA-N)?
Answer: > 100 µM

Question: What about the TGI (SK-MEL-2 melanoma) of the same compound?
Answer: > 100 µM

Question: And the TGI (MCF7 breast)?
Answer: > 100 µM

Question: What about the TGI (NCI-H226 lung) of the same compound?
Answer: > 100 µM

Question: And the TGI (HL-60(TB) leukemia)?
Answer: > 100 µM

Question: How did the TGI (M14 melanoma) turn out when `CC(=O)Nc1ccc2c3c(cc(O)c2c1)N(C(=O)CCCCCCC(=O)N1CC(CCl)c2c1cc(O)c1cc(NC(C)=O)ccc21)CC3CCl` (stereo not drawn) was run?
Answer: 0.0177 µM

Question: What about the TGI (A498 renal) of the same compound?
Answer: < 0.01 µM

Question: And the TGI (RXF 393 renal)?
Answer: 0.0185 µM

Question: And the TGI (SK-MEL-2 melanoma)?
Answer: < 0.01 µM

Question: And the TGI (MCF7 breast)?
Answer: 0.0472 µM

Question: `O=C(Nc1ccc2[nH]c(C(=O)N3CC(CCl)c4c3cc([N+](=O)[O-])c3ccccc43)cc2c1)Nc1ccc2[nH]c(C(=O)N3CC(CCl)c4c3cc([N+](=O)[O-])c3ccccc43)cc2c1` (stereo not drawn) was tested. Which TGI (M14 melanoma) did it give?
Answer: > 100 µM

Question: And the TGI (HOP-92 NSCLC)?
Answer: > 100 µM

Question: And the TGI (A498 renal)?
Answer: > 100 µM

Question: And the TGI (NCI-H460 lung)?
Answer: > 100 µM

Question: And the TGI (MDA-N)?
Answer: > 100 µM

Question: And the TGI (SK-MEL-2 melanoma)?
Answer: > 100 µM

Question: And the TGI (MCF7 breast)?
Answer: > 100 µM

Question: And the TGI (NCI-H226 lung)?
Answer: > 100 µM

Question: For `OC(c1ccc(C(F)(F)F)cc1)C(F)(F)c1nc2ccccc2o1` (stereo not drawn), which TGI (M14 melanoma) is on record?
Answer: > 100 µM

Question: What about the TGI (HOP-92 NSCLC) of the same compound?
Answer: > 100 µM

Question: What about the TGI (RXF 393 renal) of the same compound?
Answer: > 100 µM

Question: What about the TGI (NCI-H460 lung) of the same compound?
Answer: > 100 µM

Question: What about the TGI (SK-MEL-2 melanoma) of the same compound?
Answer: > 100 µM

Question: And the TGI (MCF7 breast)?
Answer: > 100 µM

Question: And the TGI (NCI-H226 lung)?
Answer: > 100 µM

Question: What about the TGI (HL-60(TB) leukemia) of the same compound?
Answer: > 100 µM

Question: What does the source list for `NCCCC[C@H](N)C(=O)Nc1ccc(-c2nc3ccccc3s2)cc1`?
Answer: TGI (M14 melanoma): 25.1 µM; TGI (HOP-92 NSCLC): > 100 µM; TGI (A498 renal): 72.9 µM; TGI (RXF 393 renal): > 100 µM; TGI (NCI-H460 lung): 34.9 µM; TGI (MDA-N): 29 µM; TGI (SK-MEL-2 melanoma): > 100 µM; TGI (NCI-H226 lung): 71.1 µM

Question: How did the TGI (M14 melanoma) turn out when `COC(O)C(=O)c1ccc2c(c1)CC1(C2)Cc2cc3c(cc2C1=O)CCC3` (stereo not drawn) was run?
Answer: 35.9 µM

Question: What about the TGI (A498 renal) of the same compound?
Answer: 37.1 µM

Question: What about the TGI (NCI-H460 lung) of the same compound?
Answer: 70.6 µM

Question: What about the TGI (MDA-N) of the same compound?
Answer: 42.3 µM

Question: What about the TGI (SK-MEL-2 melanoma) of the same compound?
Answer: 47.1 µM

Question: And the TGI (MCF7 breast)?
Answer: 39.6 µM

Question: And the TGI (NCI-H226 lung)?
Answer: 43.6 µM

Question: Which results are given for `O=C1C(=O)N(c2cccc(C(F)(F)F)c2)C(=S)N1c1ccccc1`?
Answer: TGI (HOP-92 NSCLC): 50.7 µM; TGI (A498 renal): 59.5 µM; TGI (RXF 393 renal): > 100 µM; TGI (NCI-H460 lung): 6.49 µM; TGI (MDA-N): 71.9 µM; TGI (SK-MEL-2 melanoma): 40.5 µM; TGI (NCI-H226 lung): 97.5 µM; TGI (HL-60(TB) leukemia): 84.5 µM

Question: With `CCOc1ccc(N/C(=C(/C(Cl)=C(/Cl)N2CCCCC2)[N+](=O)[O-])n2nnc3ccccc32)cc1` as the compound, how does the TGI (M14 melanoma) read?
Answer: 38.2 µM

Question: What about the TGI (HOP-92 NSCLC) of the same compound?
Answer: 42 µM

Question: What about the TGI (A498 renal) of the same compound?
Answer: 34.9 µM

Question: And the TGI (NCI-H460 lung)?
Answer: 70.4 µM

Question: And the TGI (MDA-N)?
Answer: 52.4 µM

Question: And the TGI (SK-MEL-2 melanoma)?
Answer: 33.3 µM

Question: And the TGI (MCF7 breast)?
Answer: 39.4 µM

Question: What about the TGI (NCI-H226 lung) of the same compound?
Answer: 58.7 µM

Question: How did the TGI (A498 renal) turn out when `CC1=C(c2ccccc2)NC(=S)C(C)C(c2ccccc2)=N1` (stereo not drawn) was run?
Answer: > 100 µM

Question: And the TGI (RXF 393 renal)?
Answer: 61.6 µM

Question: And the TGI (NCI-H460 lung)?
Answer: > 100 µM

Question: What about the TGI (MDA-N) of the same compound?
Answer: 46.8 µM

Question: And the TGI (MCF7 breast)?
Answer: > 100 µM

Question: And the TGI (NCI-H226 lung)?
Answer: > 100 µM

Question: And the TGI (HL-60(TB) leukemia)?
Answer: 35.1 µM

Question: How did the TGI (M14 melanoma) turn out when `CN(C)CCn1c(=O)c2ccc(NCCN3CCNCC3)c3c(=O)c4ccccc4n(c1=O)c23` was run?
Answer: 29 µM

Question: What about the TGI (HOP-92 NSCLC) of the same compound?
Answer: 9.59 µM

Question: What about the TGI (A498 renal) of the same compound?
Answer: 16.1 µM

Question: What about the TGI (NCI-H460 lung) of the same compound?
Answer: 12 µM

Question: And the TGI (MDA-N)?
Answer: 18.9 µM

Question: And the TGI (SK-MEL-2 melanoma)?
Answer: 8.72 µM

Question: What about the TGI (MCF7 breast) of the same compound?
Answer: 12.7 µM

Question: What about the TGI (NCI-H226 lung) of the same compound?
Answer: 15.2 µM

Question: What about the TGI (HL-60(TB) leukemia) of the same compound?
Answer: 18.4 µM

Question: `C=C(CCC/C(C)=C/C=C/[C@@H](C)CCCc1ccoc1)C[C@@H]1OC(=O)[C@H](C)[C@@H]1O` was tested. Which TGI (M14 melanoma) did it give?
Answer: 19.9 µM

Question: And the TGI (HOP-92 NSCLC)?
Answer: 19.6 µM

Question: And the TGI (A498 renal)?
Answer: 15.3 µM

Question: And the TGI (RXF 393 renal)?
Answer: 19.3 µM

Question: What about the TGI (NCI-H460 lung) of the same compound?
Answer: 29.8 µM

Question: What about the TGI (MDA-N) of the same compound?
Answer: 21.5 µM

Question: And the TGI (SK-MEL-2 melanoma)?
Answer: 17.7 µM

Question: And the TGI (MCF7 breast)?
Answer: 25.2 µM

Question: What about the TGI (NCI-H226 lung) of the same compound?
Answer: 14.1 µM
